{"source": "paper PMC7423715", "about": "(International journal of pharmaceutics, 2020)", "system": "Calu-3 cell monolayer", "experiment": "Transepithelial transport across the Calu-3 cell monolayer", "details": "colistin transport, Calu-3 monolayer, HBSS, 4 hours, LC-MS/MS, n = 4, Fig. 6C", "note": "Counter-ions that a name gives are not always drawn. Bridge positions count the residues as written; N and C are the ends. Square brackets hold non-standard residues; d marks the D form. Peptide text beside a SMILES is read from it. * marks the point of attachment. X1 = CC[C@H](C)CCCCC(=O)*; Dab = NCC[C@H](N)C(=O)O"}
{"smiles": "CC[C@H](C)CCCCC(=O)N[C@@H](CCN)C(=O)N[C@H](C(=O)N[C@@H](CCN)C(=O)N[C@H]1CCNC(=O)[C@H]([C@@H](C)O)NC(=O)[C@H](CCN)NC(=O)[C@H](CCN)NC(=O)[C@H](CC(C)C)NC(=O)[C@@H](CC(C)C)NC(=O)[C@H](CCN)NC1=O)[C@@H](C)O", "note": "[colistin, colistin sulfate] (X1-[Dab]T[Dab][Dab][Dab][dL]L[Dab][Dab]T; lactam 4-C)", "values": [{"measurement": "drug retained in the donor compartment", "value": "more than 90%"}]}
